Values of other authors in patent publication US7803786B2, “Pharmaceutical co-crystal compositions and related methods of use” (Transform Pharmaceuticals, Inc., priority 2004, dated 2010).

Legend:
[1] = co-crystal former; multiple values for multiple functionalities
[2] = Cambridge Structural Database (piracetam), Merck Index (gentisic acid)

pKa Values [1] | known polymorphism of the free form [2] | SMILES
3.76 | – | O=C(O)C(O)C(O)C(O)C(O)CO (stereo not drawn) [Gluconic acid]
– | dimorphic | O=C(O)c1cc(O)ccc1O [gentisic acid]
– | Three polymorphs | NC(=O)CN1CCCC1=O [piracetam]
